Results from PubChem BioAssay (NCI).
Values joined by “and” are separate entries in the source; they are usually repeats but may differ in a detail not shown here. Equal entries are not always repeated.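 Five concentrations, 48 hours, 96-well plates. At the GI50, growth is halved. TGI denotes the concentration required for complete inhibition of growth.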

Key:
Experiment in all cases: NCI-60 cell line screen, 48 h
UACC-257 melanoma = system: UACC-257 melanoma
786-0 renal = system: 786-0 renal
HT29 colon = system: HT29 colon
UO-31 renal = system: UO-31 renal
LOX IMVI melanoma = system: LOX IMVI melanoma
T-47D breast = system: T-47D breast
A549 NSCLC = system: A549 NSCLC
TK-10 renal = system: TK-10 renal
NCI-H226 lung = system: NCI-H226 lung
CAKI-1 renal = system: CAKI-1 renal
HOP-92 NSCLC = system: HOP-92 NSCLC

SMILES	TGI (UACC-257 melanoma)	TGI (786-0 renal)	TGI (HT29 colon) [µM]	TGI (UO-31 renal)	TGI (LOX IMVI melanoma) [µM]	TGI (T-47D breast)	TGI (A549 NSCLC) [µM]	TGI (TK-10 renal)	TGI (NCI-H226 lung)	TGI (CAKI-1 renal)	TGI (HOP-92 NSCLC) [µM]	GI50 (UACC-257 melanoma) [µM]	GI50 (UO-31 renal) [µM]	GI50 (LOX IMVI melanoma) [µM]	GI50 (T-47D breast) [µM]	GI50 (NCI-H226 lung) [µM]	GI50 (CAKI-1 renal) [µM]
CCN(/C=C1/C(=O)C(c2ccccc2)N(c2ccccc2)C1=O)CC (stereo not drawn)	> 10 µM	> 10 µM	> 10	> 10 µM	> 10	> 10 µM	> 10	> 10 µM	> 10 µM	> 10 µM	–	–	–	–	–	–	–
O=C1c2ccccc2N2OC3(N4CCOCC4)CCCC3C12c1ccccc1 (stereo not drawn)	> 100 µM	> 100 µM	> 100	> 100 µM	–	–	> 100	–	> 100 µM	–	> 100	–	–	–	–	–	–
CN(NC1=NCCO1)c1ccc2ccccc2c1	> 100 µM	> 100 µM	> 100	> 100 µM	> 100	> 100 µM	> 100	> 100 µM	> 100 µM	> 100 µM	57.3	–	–	–	–	–	–
COC(=O)/C=C(\C(=O)OC)c1cc(C)c2cc(C(C)C)ccc(C)c1-2	–	> 100 µM	26.7	> 100 µM	> 100	> 100 µM	> 100	> 100 µM	> 100 µM	> 100 µM	77.9	–	–	–	–	–	–
CC(N)(CC(O)(C(F)(F)Cl)C(F)(F)Cl)C(=O)O (stereo not drawn)	> 10 µM	> 10 µM	> 10	> 10 µM	> 10	> 10 µM	> 10	> 10 µM	> 10 µM	> 10 µM	> 10	–	–	–	–	–	–
Cn1c(CNc2ccc(-c3n[nH]c(=S)n3C)cc2)n[nH]c1=S	> 100 µM	> 100 µM	> 100	> 100 µM	> 100	–	> 100	> 100 µM	> 100 µM	> 100 µM	> 100	–	–	–	–	–	–
CC(SC(=S)N1CCOCC1)C(=O)Nc1nnc(-c2ccc(Cl)cc2)o1 (stereo not drawn)	> 100 µM	> 100 µM	> 100	> 100 µM	> 100	> 100 µM	> 100	> 100 µM	> 100 µM	–	> 100	–	–	–	–	–	–
NS(=O)(=O)c1nnc(NC(=S)NC(=O)Nc2ccc(Cl)c(Cl)c2)s1	65.1 µM	> 100 µM	71.9	48 µM	34	–	> 100	> 100 µM	> 100 µM	63.6 µM	36.2	–	–	–	–	–	–
O=C(c1ccccc1)[C@H]1Nc2ccc(Cl)cc2[C@H]2CCC[C@@H]12	–	> 100 µM	62.2	> 100 µM	19.9	–	> 100	> 100 µM	63.3 µM	> 100 µM	–	–	–	–	–	–	–
Cc1ccc(OCC2OC(n3cnc4c(Cl)nc(Nc5cc(Cl)cc(Cl)c5)nc43)CC2Oc2ccc(C)cc2)cc1 (stereo not drawn)	> 100 µM	> 100 µM	> 100	> 100 µM	> 100	> 100 µM	> 100	–	> 100 µM	> 100 µM	> 100	–	–	–	–	–	–
CN1CCOC(C(NC(=O)c2ccccc2)c2ccccc2)C1=O (stereo not drawn)	> 100 µM	> 100 µM	> 100	> 100 µM	> 100	–	> 100	> 100 µM	> 100 µM	> 100 µM	> 100	–	–	–	–	–	–
O=C(NCCC1CNc2ccccc21)OCc1ccccc1 (stereo not drawn)	> 100 µM	> 100 µM	> 100	> 100 µM	–	–	> 100	–	–	> 100 µM	> 100	–	–	–	–	–	–
O=C(c1ccc(Cl)cc1)N(C(=O)N1CCCCC1)c1ccccc1	–	> 100 µM	> 100	> 100 µM	> 100	89 µM	–	–	> 100 µM	> 100 µM	–	–	–	–	–	–	–
COc1cc(C2c3cc4c(cc3OC(NN)C2C)OCO4)cc(OC)c1O (stereo not drawn)	93 µM	> 100 µM	–	61.8 µM	–	31 µM	53.5	90.6 µM	62 µM	> 100 µM	> 100	–	–	–	–	–	–
O=[N+]([O-])c1cccc2nc3ccccc3c(NCCCCCNc3c4ccccc4nc4cccc([N+](=O)[O-])c34)c12	0.393 µM and 1.23 µM	0.0666 µM and 0.0332 µM	0.0922	0.406 µM and 0.0604 µM	–	0.837 µM and 2.24 µM	–	0.26 µM and 1.79 µM	0.562 µM and 1.94 µM	0.278 µM and 0.0712 µM	0.0973	0.0619	0.0192	0.0746	0.121	0.0249	0.0199
Cc1ccc(S[C@@](C=O)(NC(=O)OCc2ccccc2)C(F)(F)F)cc1	> 100 µM	47.5 µM	37.9	36.6 µM	48.8	71 µM	88.3	–	40.2 µM	63.8 µM	65.3	–	–	–	–	–	–
NNc1nnc(CCCCCCCCc2nnc(NN)n2N)n1N	> 100 µM	> 100 µM	> 100	> 100 µM	> 100	–	> 100	> 100 µM	> 100 µM	> 100 µM	> 100	–	–	–	–	–	–
CCN1CCC(O)(c2ccc([N+](=O)[O-])cc2)C(C(=O)c2ccc([N+](=O)[O-])cc2)C1 (stereo not drawn)	33.7 µM	29.9 µM	> 100	36.8 µM	38.6	46.4 µM	> 100	32.4 µM	61.3 µM	41.2 µM	–	–	–	–	–	–	–
C1CCC(N=C2N(C3CCCCC3)C(=NC3CCCCC3)N2C2CCCCC2)CC1	> 100 µM	> 100 µM	> 100	> 100 µM	> 100	–	> 100	> 100 µM	–	–	> 100	–	–	–	–	–	–
CCCCCCCCOCC(COC(=O)CCCCCCC)OC(=O)CCCCCCC (stereo not drawn)	> 100 µM	> 100 µM	> 100	> 100 µM	> 100	–	> 100	> 100 µM	> 100 µM	> 100 µM	> 100	–	–	–	–	–	–
COc1ccc(-c2oc3cc(-c4cc5oc(-c6ccc(OC)cc6)c(-c6ccc(OC)cc6)c5cc4OC)c(OC)cc3c2-c2ccc(OC)cc2)cc1	> 100 µM	> 100 µM	> 100	> 100 µM	> 100	–	> 100	> 100 µM	> 100 µM	> 100 µM	> 100	–	–	–	–	–	–
CC1=NN(c2nc(N)nc(C(C)Cl)n2)C(C)(C)C1 (stereo not drawn)	> 100 µM	> 100 µM	> 100	> 100 µM	> 100	> 100 µM	–	> 100 µM	> 100 µM	> 100 µM	> 100	–	–	–	–	–	–
